Measured values reported in ChEMBL document CHEMBL5360534, “Synthetic α-glucosidase inhibitors as promising anti-diabetic agents: Recent developments and future challenges” (Eur J Med Chem, 2023).
Each block holds one compound with its values, some of them ahead of it.

Experiments:
[1] = Inhibition of alpha-glucosidase (unknown origin) using p-nitrophenyl-alpha-D-glucopyranoside as substrate preincubated for 15 mins followed by substrate addition and measured after 30 mins by spectrophotometric analysis; set-up: species or system Homo sapiens
[2] = Inhibition of alpha-glucosidase (unknown origin) using pNPG as substrate preincubated for 15 mins followed by substrate addition and measured after 15 mins by spectrophotometric analysis; set-up: species or system Homo sapiens
[3] = Inhibition of alpha-glucosidase (unknown origin) using pNPG as substrate by spectrophotometric analysis; set-up: species or system Homo sapiens
[4] = Inhibition of alpha-glucosidase (unknown origin) using pNPG as substrate assessed as inhibition constant by spectrophotometric analysis; set-up: species or system Homo sapiens
Alpha-glucosidase [5] = target: T1, Alpha-glucosidase (Saccharomyces cerevisiae S288c, UniProt P53341+P38158+P07265); assay: Reversible non-competitive inhibition of Saccharomyces cerevisiae alpha-glucosidase using p-nitrophenyl-alpha-D-glucopyranoside as substrate assessed as inhibition constant preincubated for 10 mins followed by substrate addition and measured by absorbance based analysis; format: protein assay
Alpha-glucosidase [6] = target: T1, Alpha-glucosidase; assay: Inhibition of Saccharomyces cerevisiae alpha-glucosidase using p-nitrophenyl-alpha-D-glucopyranoside as substrate preincubated for 10 mins followed by substrate addition and measured by absorbance based analysis; format: protein assay
Alpha-glucosidase [7] = target: T1, Alpha-glucosidase; assay: Inhibition of Saccharomyces cerevisiae alpha-glucosidase by absorbance based microplate reader analysis; format: protein assay
Alpha-glucosidase [8] = target: T1, Alpha-glucosidase; assay: Inhibition of Saccharomyces cerevisiae alpha-glucosidase using p-nitrophenyl-alpha-D-glucopyranoside as substrate preincubated for 10 mins followed by substrate addition and measured by spectrophotometric analysis; format: protein assay
Alpha-glucosidase [9] = target: T1, Alpha-glucosidase; assay: Inhibition of Saccharomyces cerevisiae alpha-glucosidase using p-nitrophenyl-alpha-D-glucopyranoside as substrate assessed as inhibition constant preincubated for 10 mins followed by substrate addition and measured by spectrophotometric analysis; format: protein assay
Alpha-glucosidase [10] = target: T1, Alpha-glucosidase; assay: Inhibition of Saccharomyces cerevisiae alpha-glucosidase using p-nitrophenyl-alpha-D-glucopyranoside as substrate preincubated for 5 mins followed by substrate addition and measured after 5 mins by spectrophotometric analysis; format: protein assay
[11] = Competitive inhibition of alpha-glucosidase (unknown origin) using p-nitrophenyl-alpha-D-glucopyranoside as substrate assessed as inhibition constant; set-up: species or system Homo sapiens
[12] = Inhibition of alpha-glucosidase (unknown origin) using p-nitrophenyl-alpha-D-glucopyranoside as substrate; set-up: species or system Homo sapiens
Alpha-glucosidase [13] = target: T1, Alpha-glucosidase; assay: Inhibition of Saccharomyces cerevisiae alpha-glucosidase using p-nitrophenyl-alpha-D-glucopyranoside as substrate preincubated for 10 mins followed by substrate addition and measured after 30 mins by spectrophotometric analysis; format: protein assay
Alpha-glucosidase [14] = target: T1, Alpha-glucosidase; assay: Non-competitive inhibition of Saccharomyces cerevisiae alpha-glucosidase using p-nitrophenyl-alpha-D-glucopyranoside as substrate assessed as inhibition constant preincubated for 10 mins followed by substrate addition and measured after 30 mins by spectrophotometric analysis; format: protein assay
[15] = target: T2, Alpha-glucosidase (Saccharomyces cerevisiae S288c) (UniProt P53341+P38158+P07265); assay: Potency index, ratio of acarbose IC50 to test compound IC50 for inhibition of Saccharomyces cerevisiae alpha-glucosidase using p-nitrophenyl-alpha-D-glucopyranoside as substrate preincubated for 15 mins followed by substrate addition and measured by microplate reader analysis; format: protein assay
Alpha-glucosidase [16] = target: T1, Alpha-glucosidase; assay: Inhibition of Saccharomyces cerevisiae alpha-glucosidase using p-nitrophenyl-alpha-D-glucopyranoside as substrate preincubated for 15 mins followed by substrate addition and measured by microplate reader analysis; format: protein assay
Homo sapiens = species on record: Homo sapiens; assay: Potency index, ratio of acarbose IC50 to test compound IC50 for inhibition of alpha-glucosidase (unknown origin) using p-NPG as substrate preincubated for 5 mins followed by substrate addition and measured after 30 mins by absorbance based analysis; details: time 35.0 min
[17] = Inhibition of alpha-glucosidase (unknown origin) using p-NPG as substrate preincubated for 5 mins followed by substrate addition and measured after 30 mins by absorbance based analysis; set-up: species or system Homo sapiens
[18] = Inhibition of alpha-glucosidase (unknown origin) using p-nitrophenyl-alpha-D-glucopyranoside as substrate preincubated for 15 mins followed by substrate addition and measured after 30 mins by absorbance based analysis; set-up: species or system Homo sapiens
[19] = Inhibition of rat intestinal alpha-glucosidase
Alpha-glucosidase [20] = target: T1, Alpha-glucosidase; assay: Inhibition of Saccharomyces cerevisiae alpha-glucosidase using p-nitrophenyl-alpha-D-glucopyranoside as substrate preincubated for 5 mins followed by substrate addition and measured after 5 mins by absorbance based analysis; format: protein assay
[21] = target: T2, Alpha-glucosidase (Saccharomyces cerevisiae S288c); assay: Potency index, ratio of acarbose IC50 to test compound IC50 for inhibition of Saccharomyces cerevisiae alpha-glucosidase using p-nitrophenyl-alpha-D-glucopyranoside as substrate preincubated for 5 mins followed by substrate addition and measured after 5 mins by absorbance based analysis; format: protein assay; details: time 10.0 min
[22] = Inhibition of Saccharomyces cerevisiae alpha-glucosidase type I using p-nitrophenyl-alpha-D-glucopyranoside as substrate preincubated for 10 mins followed by substrate addition and measured after 20 mins by spectrophotometric analysis
Alpha-glucosidase [23] = target: T1, Alpha-glucosidase; assay: Inhibition of Saccharomyces cerevisiae alpha-glucosidase using p-nitrophenyl glucopyranoside as substrate preincubated for 10 mins followed by substrate addition and measured after 20 mins by spectrophotometric analysis; format: protein assay
Alpha-glucosidase [24] = target: T1, Alpha-glucosidase; assay: Inhibition of Saccharomyces cerevisiae alpha-glucosidase using pNPG as substrate by spectrophotometric analysis; format: protein assay

Compound: Cc1ccc2c(c1)/C(=N/Nc1nc(-c3ccc(O)cc3)cs1)C(=O)N2Cc1cccc(F)c1
IC50 [1]: 5.36 µM

Compound: Cc1nn(-c2ccccc2)c(Cl)c1C1Nc2ccccc2C(=O)N1c1ccc(O)cc1 (stereo not given)
IC50 [2]: 2.6 µM

Compound: Cc1cc(C)cc(CS(=O)(=O)c2ccc(NC(=O)Nc3cccc(Cl)c3)cc2)c1
IC50 [3]: 0.00905 µM | Ki [4]: 0.0128 µM

Compound: COc1ccc(/N=C2/NC(=O)/C(=C/c3cn(-c4ccccc4)nc3-c3ccc([N+](=O)[O-])cc3)S2)cc1
IC50 (Alpha-glucosidase [7]): 4.48 µM

Compound: COc1ccc(C2NC(=O)c3ccccc3N2)cc1 (stereo not given)
IC50 (Alpha-glucosidase [8]): 1.15 µM | Ki (Alpha-glucosidase [9]): 0.42 µM

Compound: CCCSc1nnc(C(C)c2ccc3cc(OC)ccc3c2)n1-c1ccc(Cl)c(Cl)c1 (stereo not given)
IC50 (Alpha-glucosidase [10]): 1.1 µM

Compound: NS(=O)(=O)c1ccc(Cc2nc(Cc3ccc(S(N)(=O)=O)cc3)nc(-c3cccc([N+](=O)[O-])c3)n2)cc1
IC50 [3]: 41.7 µM | Ki [4]: 41.7 µM

Compound: CCCSc1nnc(C(C)c2ccc3cc(OC)ccc3c2)n1-c1ccc(F)cc1 (stereo not given)
IC50 (Alpha-glucosidase [10]): 1 µM

Compound: O=C1Nc2cc(Br)ccc2/C1=N/Nc1nc(-c2ccc(Br)cc2)cs1
IC50 [18]: 20.8 µM

Compound: N[C@H]1C=C(CO)[C@@H](O)[C@H](O)[C@H]1O [VALIENAMINE]
IC50 [19]: 91 µM

Compound: Clc1ccc(-n2c(-c3cn(-c4ccccc4)nc3-c3ccc(Br)cc3)nc(-c3ccccc3)c2-c2ccccc2)cc1
IC50 [22]: 25.2 µM

Compound: O=c1c2ccccc2nc(SCc2cn(Cc3ccc(Br)cc3)nn2)n1CCc1ccccc1
IC50 (Alpha-glucosidase [23]): 181 µM | IC50 (Alpha-glucosidase [24]): 181 µM

Other lines, results leading:

Ki (Alpha-glucosidase [5]): 1.5 µM | IC50 (Alpha-glucosidase [6]): 2.54 µM
Compound: C/C(=N\OC(=O)/C=C/c1ccc(Br)cc1)c1cc2ccc(Br)cc2oc1=O

Ki [11]: 48.6 µM | IC50 [12]: 48.6 µM
Compound: COc1ccc(-c2[nH]c3c(c2CC#N)c(=O)oc2ccccc23)cc1

IC50 (Alpha-glucosidase [13]): 6.24 µM | Ki (Alpha-glucosidase [14]): 6.86 µM
Compound: O=C(N/N=C/c1cc(Cl)cc(Cl)c1O)c1nc(-c2cc3ccccc3oc2=O)cs1

Ratio IC50 [15]: 167 | IC50 (Alpha-glucosidase [16]): 0.83 µM
Compound: Oc1cc(-c2cc3cccc(Cl)c3o2)cc(O)c1O

Ratio IC50 (Homo sapiens): 255 | IC50 [17]: 0.15 µM
Compound: Cc1ccccc1C(=O)/N=c1\scc(C)n1-c1cc(Cl)c(Cl)cc1Cl

IC50 (Alpha-glucosidase [20]): 1.26 µM | Ratio IC50 [21]: 30
Compound: O=c1cc(-c2cccc(OCc3cc(C(F)(F)F)ccc3C(F)(F)F)c2)oc2ccccc12

Ki [11]: 42.6 µM | IC50 [12]: 48.6 µM
Compound: COc1ccc2oc(=O)c3c(CC#N)c(-c4ccccc4)[nH]c3c2c1
